What was measured:
Type in all cases: in vivo
[1] = system: barnyardgrass (Echinochloa crus-galli); experiment: Test B flooded paddy test, plant response rating; settings: 250 g ai/ha; Flood; scale of 0 to 100 where 0 is no effect and 100 is complete control; 13 to 15 days
Outline: (§1)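 Test compounds are applied straight into paddy water held 3 cm above the soil surface, with that flood maintained for the whole test. After 13 to 15 days in the greenhouse, each species is scored visually relative to controls.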

[2] = system: sedge, umbrella (small-flower umbrella sedge, Cyperus difformis); experiment: Test B flooded paddy test, plant response rating; settings: 250 g ai/ha; Flood; scale of 0 to 100 where 0 is no effect and 100 is complete control; 13 to 15 days
Outline: as §1

[3] = system: ducksalad (Heteranthera limosa); experiment: Test B flooded paddy test, plant response rating; settings: 250 g ai/ha; Flood; scale of 0 to 100 where 0 is no effect and 100 is complete control; 13 to 15 days
Outline: as §1

rice (Oryza sativa) = experiment: Test B flooded paddy test, plant response rating; settings: 250 g ai/ha; Flood; scale of 0 to 100 where 0 is no effect and 100 is complete control; 13 to 15 days
Outline: as §1

[4] = system: barnyardgrass (Echinochloa crus-galli); experiment: Test A postemergence, visual injury rating; settings: 0 is no effect, 100 is complete control; for Barnyardgrass plant response rating: 0 to 100 scale, approximately 10 days
Outline: (§2)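 Injury scores run from 0, no effect, to 100, complete control, judged by eye against untreated plants roughly 10 days after treatment. Chemicals carried a surfactant in a non-phytotoxic solvent and went onto loam–sand soil preemergence or onto one- to two-leaf seedlings postemergence.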

[5] = system: ragweed (common ragweed, Ambrosia elatior); experiment: Test A postemergence, visual injury rating; settings: 0 is no effect, 100 is complete control; for Ragweed plant response rating: 0 to 100 scale, approximately 10 days
Outline: as §2

kochia (Kochia scoparia) [6] = experiment: Test A postemergence, visual injury rating; settings: 0 is no effect, 100 is complete control; for Kochia plant response rating: 0 to 100 scale, approximately 10 days
Outline: as §2

[7] = system: wheat (Triticum aestivum); experiment: Test A postemergence, visual injury rating; settings: 0 is no effect, 100 is complete control; for Wheat plant response rating: 0 to 100 scale, approximately 10 days
Outline: as §2

corn (Zea mays) = experiment: Test A postemergence, visual injury rating; settings: 0 is no effect, 100 is complete control; for Corn plant response rating: 0 to 100 scale, approximately 10 days
Outline: as §2

[8] = system: galium (catchweed bedstraw, Galium aparine); experiment: Test A postemergence, visual injury rating; settings: 0 is no effect, 100 is complete control; for Galium plant response rating: 0 to 100 scale, approximately 10 days
Outline: as §2

[9] = system: giant foxtail (Setaria faberii); experiment: Test A postemergence, visual injury rating; settings: 0 is no effect, 100 is complete control; for Foxtail, Giant plant response rating: 0 to 100 scale, approximately 10 days
Outline: as §2

[10] = system: pigweed (Amaranthus retroflexus); experiment: Test A postemergence, visual injury rating; settings: 0 is no effect, 100 is complete control; for Pigweed plant response rating: 0 to 100 scale, approximately 10 days
Outline: as §2

[11] = system: blackgrass (Alopecurus myosuroides); experiment: Test A postemergence, visual injury rating; settings: 0 is no effect, 100 is complete control; for Blackgrass plant response rating: 0 to 100 scale, approximately 10 days
Outline: as §2

[12] = system: Italian ryegrass (Lolium multiflorum); experiment: Test A postemergence, visual injury rating; settings: 0 is no effect, 100 is complete control; for Ryegrass, Italian plant response rating: 0 to 100 scale, approximately 10 days
Outline: as §2

[13] = system: barnyardgrass (Echinochloa crus-galli); experiment: Test A preemergence, visual injury rating
Outline: as §2

[14] = system: ragweed (common ragweed, Ambrosia elatior); experiment: Test A preemergence, visual injury rating
Outline: as §2

kochia (Kochia scoparia) [15] = experiment: Test A preemergence, visual injury rating
Outline: as §2

[16] = system: giant foxtail (Setaria faberii); experiment: Test A preemergence, visual injury rating
Outline: as §2

[17] = system: pigweed (Amaranthus retroflexus); experiment: Test A preemergence, visual injury rating
Outline: as §2

[18] = system: Italian ryegrass (Lolium multiflorum); experiment: Test A preemergence, visual injury rating
Outline: as §2

[19] = 31 g ai/ha, 0 to 100 scale, 0 no effect, 100 complete control
[20] = 125 g ai/ha, 0 to 100 scale (0 no effect, 100 complete control)
[21] = 500 g ai/ha, 0 to 100 scale (0 no effect, 100 complete control)

COc1cccc(Oc2ncc(Cl)cn2)c1C(=O)OCCC(F)(F)F [Compound 112]
Plant response rating, Barnyardgrass [1]: 20
Plant response rating, Sedge, Umbrella [2]: 100
Plant response rating, Ducksalad [3]: 100
Plant response rating, Rice (rice (Oryza sativa)): 40
Barnyardgrass plant response rating ([4]; 31 g ai/ha): 0
Barnyardgrass plant response rating ([4]; 125 g ai/ha): 10
Ragweed plant response rating ([5]; 31 g ai/ha): 20
Ragweed plant response rating ([5]; 125 g ai/ha): 40
Kochia plant response rating (kochia (Kochia scoparia) [6]; 31 g ai/ha): 0
Kochia plant response rating (kochia (Kochia scoparia) [6]; 125 g ai/ha): 30
Wheat plant response rating ([7]; 31 g ai/ha): 0
Wheat plant response rating ([7]; 125 g ai/ha): 0
Corn plant response rating (corn (Zea mays); 31 g ai/ha): 0
Corn plant response rating (corn (Zea mays); 125 g ai/ha): 0
Galium plant response rating ([8]; 31 g ai/ha): 60
Galium plant response rating ([8]; 125 g ai/ha): 80
Foxtail, Giant plant response rating ([9]; 31 g ai/ha): 0
Foxtail, Giant plant response rating ([9]; 125 g ai/ha): 30
Pigweed plant response rating ([10]; 31 g ai/ha): 40
Pigweed plant response rating ([10]; 125 g ai/ha): 70
Blackgrass plant response rating ([11]; 31 g ai/ha): 0
Blackgrass plant response rating ([11]; 125 g ai/ha): 30
Ryegrass, Italian plant response rating ([12]; 31 g ai/ha): 0
Ryegrass, Italian plant response rating ([12]; 125 g ai/ha): 0
Plant response rating, Barnyardgrass [13, 19]: 0
Plant response rating, Barnyardgrass [13, 20]: 80
Plant response rating, Ragweed [14, 19]: 0
Plant response rating, Ragweed [14, 20]: 0
Plant response rating, Kochia (kochia (Kochia scoparia) [15]; [19]): 0
Plant response rating, Kochia (kochia (Kochia scoparia) [15]; [20]): 50
Plant response rating, Foxtail, Giant [16, 19]: 0
Plant response rating, Foxtail, Giant [16, 20]: 70
Plant response rating, Pigweed [17, 19]: 60
Plant response rating, Pigweed [17, 20]: 100
Plant response rating, Ryegrass, Italian [18, 19]: 10
Plant response rating, Ryegrass, Italian [18, 20]: 0

CC(=NOCCC(F)(F)F)c1c(Br)cccc1Oc1ncc(Cl)cn1 [Compound 98]
Plant response rating, Barnyardgrass [1]: 0
Plant response rating, Sedge, Umbrella [2]: 0
Plant response rating, Ducksalad [3]: 0
Plant response rating, Rice (rice (Oryza sativa)): 0
Barnyardgrass plant response rating ([4]; 31 g ai/ha): 0
Barnyardgrass plant response rating ([4]; 125 g ai/ha): 10
Ragweed plant response rating ([5]; 31 g ai/ha): 0
Ragweed plant response rating ([5]; 125 g ai/ha): 10
Kochia plant response rating (kochia (Kochia scoparia) [6]; 31 g ai/ha): 0
Kochia plant response rating (kochia (Kochia scoparia) [6]; 125 g ai/ha): 0
Wheat plant response rating ([7]; 31 g ai/ha): 0
Wheat plant response rating ([7]; 125 g ai/ha): 10
Corn plant response rating (corn (Zea mays); 31 g ai/ha): 0
Corn plant response rating (corn (Zea mays); 125 g ai/ha): 10
Galium plant response rating ([8]; 31 g ai/ha): 10
Galium plant response rating ([8]; 125 g ai/ha): 50
Foxtail, Giant plant response rating ([9]; 31 g ai/ha): 0
Foxtail, Giant plant response rating ([9]; 125 g ai/ha): 20
Pigweed plant response rating ([10]; 31 g ai/ha): 30
Pigweed plant response rating ([10]; 125 g ai/ha): 90
Blackgrass plant response rating ([11]; 31 g ai/ha): 0
Blackgrass plant response rating ([11]; 125 g ai/ha): 10
Ryegrass, Italian plant response rating ([12]; 31 g ai/ha): 0
Ryegrass, Italian plant response rating ([12]; 125 g ai/ha): 0
Plant response rating, Barnyardgrass [13, 19]: 0
Barnyardgrass plant response rating [13, 20]: 30
Plant response rating, Ragweed [14, 19]: 0
Plant response rating, Ragweed [14, 20]: 0
Plant response rating, Kochia (kochia (Kochia scoparia) [15]; [19]): 0
Plant response rating, Kochia (kochia (Kochia scoparia) [15]; [20]): 0
Plant response rating, Foxtail, Giant [16, 19]: 0
Plant response rating, Foxtail, Giant [16, 20]: 40
Plant response rating, Pigweed [17, 19]: 0
Plant response rating, Pigweed [17, 20]: 0
Plant response rating, Ryegrass, Italian [18, 19]: 0
Plant response rating, Ryegrass, Italian [18, 20]: 0

O=C(OCC1CC1(F)F)c1c(Br)cccc1Oc1ncc(Cl)cn1 (stereo not drawn) [Compound 10]
Plant response rating, Barnyardgrass [1]: 0
Plant response rating, Sedge, Umbrella [2]: 80
Plant response rating, Ducksalad [3]: 80
Plant response rating, Rice (rice (Oryza sativa)): 0
Barnyardgrass plant response rating (0 to 100 scale) ([4]; 125 g ai/ha): 20
Barnyardgrass plant response rating (0 to 100 scale) ([4]; 500 g ai/ha): 100
Ragweed plant response rating (0 to 100 scale) ([5]; 125 g ai/ha): 10
Ragweed plant response rating (0 to 100 scale) ([5]; 500 g ai/ha): 50
Kochia plant response rating (0 to 100 scale) (kochia (Kochia scoparia) [6]; 125 g ai/ha): 90
Kochia plant response rating (0 to 100 scale) (kochia (Kochia scoparia) [6]; 500 g ai/ha): 100
Wheat plant response rating (0 to 100 scale) ([7]; 125 g ai/ha): 0
Wheat plant response rating (0 to 100 scale) ([7]; 500 g ai/ha): 40
Corn plant response rating (0 to 100 scale) (corn (Zea mays); 125 g ai/ha): 10
Corn plant response rating (0 to 100 scale) (corn (Zea mays); 500 g ai/ha): 60
Galium plant response rating (0 to 100 scale) ([8]; 125 g ai/ha): 100
Galium plant response rating (0 to 100 scale) ([8]; 500 g ai/ha): 100
Foxtail, Giant plant response rating (0 to 100 scale) ([9]; 125 g ai/ha): 30
Foxtail, Giant plant response rating (0 to 100 scale) ([9]; 500 g ai/ha): 100
Pigweed plant response rating (0 to 100 scale) ([10]; 125 g ai/ha): 90
Pigweed plant response rating (0 to 100 scale) ([10]; 500 g ai/ha): 100
Blackgrass plant response rating (0 to 100 scale) ([11]; 125 g ai/ha): 20
Blackgrass plant response rating (0 to 100 scale) ([11]; 500 g ai/ha): 90
Ryegrass, Italian plant response rating (0 to 100 scale) ([12]; 125 g ai/ha): 10
Ryegrass, Italian plant response rating (0 to 100 scale) ([12]; 500 g ai/ha): 60
Barnyardgrass plant response rating [13, 20]: 40
Barnyardgrass plant response rating [13, 21]: 100
Ragweed plant response rating [14, 20]: 0
Ragweed plant response rating [14, 21]: 0
Kochia plant response rating (kochia (Kochia scoparia) [15]; [20]): 90
Kochia plant response rating (kochia (Kochia scoparia) [15]; [21]): 100
Foxtail, Giant plant response rating [16, 20]: 100
Foxtail, Giant plant response rating [16, 21]: 100
Pigweed plant response rating [17, 20]: 100
Pigweed plant response rating [17, 21]: 100
Ryegrass, Italian plant response rating [18, 20]: 10
Ryegrass, Italian plant response rating [18, 21]: 30

Source: patent US11053204B2, “Pyrimidinyloxy benzene derivatives as herbicides” (FMC Corporation, priority 2015, dated 2021)
